Data: patent publication US20230000849A1, “INHIBITION OF SMARCA2 FOR TREATMENT OF CANCER” (Epizyme, Inc., priority 2017, published 2023)
“Also recorded” adds a separate entry of the source.

How the values were obtained:
[1] = tested on: SMARCA4 wild-type or mutant cell lines; assay: Cell growth in SMARCA4 wild-type or mutant cell lines (FIG. 6B); type: cell-based; details: SMARCA4-wt or mutant cell lines
Description: FIGS. 6A and 6B are a series of graphs illustrating antiproliferative effects of bromodomain inhibitor PFI-3.

SMARCA2 = SMARCA2 (Homo sapiens, UniProt P51531); assay: SMARCA2 ATPase activity inhibition by known bromodomain inhibitors (HTS ADP-Glo bioluminescent format); type: biochemical; details: read-out: % inh SMARCA2 at 10 nM
Method: As such, the development of viable antagonists or inhibitors (i.e., ATPase inhibitors) requires methods of monitoring ATPase activity.
The signal to background ratio, ATPase activity as a function of protein concentration, and the dependence of ATP activity on mononucleosome substrate were determined for the isolated full length SMARCA2 and SMARACA4 in a high throughput screening bioluminescent assay (HTS ADP-Glo™ format).

SMACA2 = SMACA2 (Homo sapiens, UniProt P51531); assay: PFI-3 binding to SMARCA2 (FIG. 6A)
Chain of SMACA2 (P51531 whole entry): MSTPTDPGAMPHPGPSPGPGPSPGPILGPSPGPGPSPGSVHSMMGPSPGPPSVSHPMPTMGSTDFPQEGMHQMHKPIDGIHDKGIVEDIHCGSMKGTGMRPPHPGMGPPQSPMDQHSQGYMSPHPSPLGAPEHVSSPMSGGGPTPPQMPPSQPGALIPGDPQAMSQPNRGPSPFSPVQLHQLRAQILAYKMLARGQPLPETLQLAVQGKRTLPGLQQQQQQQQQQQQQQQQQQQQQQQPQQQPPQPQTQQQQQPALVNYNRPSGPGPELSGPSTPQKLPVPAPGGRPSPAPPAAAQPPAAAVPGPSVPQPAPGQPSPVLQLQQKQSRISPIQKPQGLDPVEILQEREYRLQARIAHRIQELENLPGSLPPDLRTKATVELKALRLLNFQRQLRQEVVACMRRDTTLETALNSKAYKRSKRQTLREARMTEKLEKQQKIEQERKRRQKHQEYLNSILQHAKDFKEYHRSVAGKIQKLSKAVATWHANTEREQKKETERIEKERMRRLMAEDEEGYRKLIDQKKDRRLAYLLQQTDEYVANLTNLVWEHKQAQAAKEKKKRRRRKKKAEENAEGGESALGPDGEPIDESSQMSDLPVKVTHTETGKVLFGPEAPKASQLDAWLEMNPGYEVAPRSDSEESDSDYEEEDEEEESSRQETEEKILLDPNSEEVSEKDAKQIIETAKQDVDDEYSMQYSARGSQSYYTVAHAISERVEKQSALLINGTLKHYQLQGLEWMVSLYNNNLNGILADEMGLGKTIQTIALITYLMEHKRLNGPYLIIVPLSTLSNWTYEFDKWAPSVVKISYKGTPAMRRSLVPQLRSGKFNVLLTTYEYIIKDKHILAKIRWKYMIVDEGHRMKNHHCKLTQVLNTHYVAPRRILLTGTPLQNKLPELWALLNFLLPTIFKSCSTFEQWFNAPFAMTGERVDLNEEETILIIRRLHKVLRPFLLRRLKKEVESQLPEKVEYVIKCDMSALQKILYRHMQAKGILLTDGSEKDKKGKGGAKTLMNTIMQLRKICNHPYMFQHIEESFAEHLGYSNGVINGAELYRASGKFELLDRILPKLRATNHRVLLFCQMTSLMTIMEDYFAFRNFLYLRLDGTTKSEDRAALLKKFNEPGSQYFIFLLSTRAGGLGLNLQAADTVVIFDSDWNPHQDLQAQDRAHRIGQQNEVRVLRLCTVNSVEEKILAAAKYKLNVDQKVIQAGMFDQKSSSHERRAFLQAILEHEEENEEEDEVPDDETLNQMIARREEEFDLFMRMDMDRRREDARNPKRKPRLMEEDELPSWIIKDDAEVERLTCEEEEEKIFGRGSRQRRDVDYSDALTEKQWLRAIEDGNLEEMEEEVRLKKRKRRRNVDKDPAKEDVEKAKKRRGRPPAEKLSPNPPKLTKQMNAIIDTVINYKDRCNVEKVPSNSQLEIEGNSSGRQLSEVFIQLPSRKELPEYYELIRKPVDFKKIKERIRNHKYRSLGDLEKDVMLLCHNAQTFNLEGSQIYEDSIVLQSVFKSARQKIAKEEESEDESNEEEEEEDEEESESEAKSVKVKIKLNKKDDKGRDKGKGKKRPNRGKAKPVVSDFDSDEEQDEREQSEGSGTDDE

Chain of SMARCA2 (P51531 whole entry): as above

For `O=C(/C=C/N1C[C@H]2C[C@@H]1CN2c1ccccn1)c1ccccc1O` [PFI3], the “effect on cell growth” value [1] was “no functional effect; also recorded: does not impact cell growth”, the inhibition at 0.01 µM (SMARCA2) was 5% and the “binding affinity to SMARCA2” value (SMACA2) was “nanomolar affinity”.
